Measured values reported in US9726663B2, “Method of identifying or evaluating synergistic combinations of actives and compositions containing the same” (The Procter & Gamble Company, priority 2012, dated 2017).

Experiments:
[1] = system: human, dermal fibroblasts (BJ cell line); test: Oxygen consumption rate (oxidative phosphorylation) of fibroblasts, XF Extracellular Flux Analyzer; assay type: cell-based; set-up: Average OCR value per treatment group: unit not given here
Description: (§1) With regard to the fibroblasts discussed above in FIGS. 5A, 5B, SC, 5D, 5E, 6, 7A, 7B, 7C, 7D, 7E and 8 frozen, human dermal fibroblasts were obtained from the BJ cell line commercially available from ATCC, Bethesda, Md. The fibroblasts were grown to 70-80% confluence in a fibroblast culture medium of Eagle's Minimum Essential Medium (“EMEM”) supplemented with 10% fetal bovine serum (“FBS”) and gentamicin/amphotericin B ×500 solution (EMEM and FBS are available from ATCC and gentamicin/amphotericin B ×500 solution is available from Invitrogen). […] Each well included 100 μL of the fibroblast medium described above. A test medium was made from Dulbecco's Modified Eagle Medium (available from Seahorse Bioscience), 25 mM Glucose and 1 mM pyruvate. The test medium was warmed to 37° C. and the pH adjusted to 7.4. The cells were grown and plated at 37° C. and 5% CO2 air. The fibroblast medium in the wells was replaced by the test medium 1 hour prior to taking measurements. Oxygen consumption rate and extracellular acidification rate may be detected using an XF Extracellular Flux Analyzer or equivalent. The device should be capable of non-lethally and simultaneously detecting metabolic indicators of the oxphos and glycolysis pathways in a controlled environment, as well as providing […]. The cells may be provided in a multi-well plate suitable for use with the instrument (e.g., 24-well or 96 well plate) and washed prior to testing. The cells may be washed by any suitable means known in the art (e.g., using a Seahorse Biosciences XF prep station). It may be desirable to use a suitable prep station such as an XF prep station available from Seahorse Biosciences). When washing the cells, it may be desirable to remove the medium from the wells and wash the cells three times with a suitable amount of test medium (e.g., 180 μL in a 96-well plate or 600 μL in a 24-well plate). After washing the cells, a suitable amount (e.g., 180 μL) of an appropriate test medium is placed in each well, and the cells are equilibrated at 37° C. in a CO2-free incubator for 1-1.5 hours prior to taking placing the plate in the instrument for testing. Following the equilibration period, load the plate containing the cells into the instrument and equilibrate according to manufacturer's instructions. The entire test is conducted at 37° C. In some embodiments, the instrument may be to provide a three minute mix cycle, a two minute wait cycle, and a 3 minute measurement cycle for keratinocytes and a two minute mix cycle, two minute wait cycle, and 3 minute measurement cycle for fibroblasts. The cycles should be repeated for at least 88 minutes. It is to be appreciated that the cycles and times may be modified according to cell type and experiment design, as desired. The following example illustrates how the method herein can be used to identify synergistic combinations of skin care actives. Hydrogen peroxide is a well known ROS, and is used in this example to illustrate the undesirable metabolic effects associated with exposure of a cell to an oxidative stressor. The hydrogen peroxide was prepared at 10X working concentration in the fibroblast test medium described above. The test agents are niacinamide (also known as vitamin B3) and tocoquinone both commercially available from Sigma. The test agents were each prepared at 10× the final working concentration in the fibroblast test medium described above to provide a test agent solution. The stressor solution and the test agent solutions were both warmed to 37° C. and pH adjusted to 7.4. The cells are frozen, human, dermal fibroblasts obtained from ATCC (BJ cell line). The cells were cultured and prepared according to the test method described above. The fibroblasts were plated in Gelatin-coated, 96-well plate. Each well contained approximately 4×10^4 cells and 180 μL of fibroblast test medium (i.e., Seahorse Biosciences DMEM, 25 mM glucose and 1 mM pyruvate) at 37° C. and pH 7.4. […]

[2] = system: human, dermal fibroblasts (BJ cell line); test: Extracellular acidification rate (glycolysis) of fibroblasts, XF Extracellular Flux Analyzer; assay type: cell-based
Description: as §1

[3] = rate number 1, before addition of stressor/test agents (basal)
[4] = rate number 2, before addition of stressor/test agents (basal)
[5] = rate number 3, before addition of stressor/test agents (basal, reference)
[6] = rate number 4, 1.5 mM hydrogen peroxide, 0.25 mM niacinamide, 0.025 mM tocoquinone
[7] = rate number 5, 1.5 mM hydrogen peroxide, 0.25 mM niacinamide, 0.025 mM tocoquinone
[8] = rate number 6, 1.5 mM hydrogen peroxide, 0.25 mM niacinamide, 0.025 mM tocoquinone
[9] = rate number 7, 1.5 mM hydrogen peroxide, 0.25 mM niacinamide, 0.025 mM tocoquinone
[10] = rate number 8, 1.5 mM hydrogen peroxide, 0.25 mM niacinamide, 0.025 mM tocoquinone
[11] = rate number 9, 1.5 mM hydrogen peroxide, 0.25 mM niacinamide, 0.025 mM tocoquinone
[12] = rate number 10, 1.5 mM hydrogen peroxide, 0.25 mM niacinamide, 0.025 mM tocoquinone
[13] = rate number 11, 1.5 mM hydrogen peroxide, 0.25 mM niacinamide, 0.025 mM tocoquinone
[14] = rate number 12, 1.5 mM hydrogen peroxide, 0.25 mM niacinamide, 0.025 mM tocoquinone
[15] = rate number 13, 1.5 mM hydrogen peroxide, 0.25 mM niacinamide, 0.025 mM tocoquinone
[16] = rate number 14, 1.5 mM hydrogen peroxide, 0.25 mM niacinamide, 0.025 mM tocoquinone
[17] = rate number 15, 1.5 mM hydrogen peroxide, 0.25 mM niacinamide, 0.025 mM tocoquinone
[18] = rate number 16, 1.5 mM hydrogen peroxide, 0.25 mM niacinamide, 0.025 mM tocoquinone
[19] = rate number 17, 1.5 mM hydrogen peroxide, 0.25 mM niacinamide, 0.025 mM tocoquinone
[20] = rate number 18, 1.5 mM hydrogen peroxide, 0.25 mM niacinamide, 0.025 mM tocoquinone

CC1=C(C)C(=O)C(CCC(C)(O)CCCC(C)CCCC(C)CCCC(C)C)=C(C)C1=O (stereo not shown) [tocoquinone]
effect on reduction in OCR caused by hydrogen peroxide ([1]; in combination with 1.5 mM H2O2, 0.25 mM niacinamide, 0.025 mM tocoquinone): appears to lessen the reduction in OCR caused by the hydrogen peroxide about the same or slightly less than the niacinamide | Average OCR value per treatment group [1, 3]: 101.04 | Average OCR value per treatment group [1, 4]: 101.44 | Average OCR value per treatment group [1, 5]: 100 | Average OCR value per treatment group [1, 6]: −21.48 | Average OCR value per treatment group [1, 7]: 64.55 | Average OCR value per treatment group [1, 8]: 68.43 | Average OCR value per treatment group [1, 9]: 59.47 | Average OCR value per treatment group [1, 10]: 53.35 | Average OCR value per treatment group [1, 11]: 49.83 | Average OCR value per treatment group [1, 12]: 48.18 | Average OCR value per treatment group [1, 13]: 48.82 | Average OCR value per treatment group [1, 14]: 49.81 | Average OCR value per treatment group [1, 15]: 47.50 | Average OCR value per treatment group [1, 16]: 44.97 | Average OCR value per treatment group [1, 17]: 41.00 | Average OCR value per treatment group [1, 18]: 37.55 | Average OCR value per treatment group [1, 19]: 32.67 | Average OCR value per treatment group [1, 20]: 28.15 | Average ECAR value per treatment group [2, 3]: 107.45 percentage of rate 3 | Average ECAR value per treatment group [2, 4]: 99.58 percentage of rate 3 | Average ECAR value per treatment group [2, 5]: 100 percentage of rate 3 | Average ECAR value per treatment group [2, 6]: 56.77 percentage of rate 3 | Average ECAR value per treatment group [2, 7]: 35.13 percentage of rate 3 | Average ECAR value per treatment group [2, 8]: 32.57 percentage of rate 3 | Average ECAR value per treatment group [2, 9]: 32.46 percentage of rate 3 | Average ECAR value per treatment group [2, 10]: 34.54 percentage of rate 3 | Average ECAR value per treatment group [2, 11]: 36.55 percentage of rate 3 | Average ECAR value per treatment group [2, 12]: 36.68 percentage of rate 3 | Average ECAR value per treatment group [2, 13]: 35.75 percentage of rate 3 | Average ECAR value per treatment group [2, 14]: 32.86 percentage of rate 3 | Average ECAR value per treatment group [2, 15]: 29.78 percentage of rate 3 | Average ECAR value per treatment group [2, 16]: 28.15 percentage of rate 3 | Average ECAR value per treatment group [2, 17]: 28.07 percentage of rate 3 | Average ECAR value per treatment group [2, 18]: 30.73 percentage of rate 3 | Average ECAR value per treatment group [2, 19]: 31.49 percentage of rate 3 | Average ECAR value per treatment group [2, 20]: 31.18 percentage of rate 3
